Assay results published in patent US4124598A, “Psoralens” (Hoffmann-La Roche Inc., priority 1976, dated 1978).

Columns and labels:
[1] = system: vesicular stomatitis virus; type: cell-based, Vesicular stomatitis virus Indiana strain
[2] = molecular target: Drosophila melanogaster ribosomal RNA; assay: Equilibrium dialysis, non-covalent binding to RNA; details: for Kd: 0.01 M Tris, non-covalent binding; for (PS)/(S) for RNA in Saturated Solution: occupied/unoccupied binding sites
Procedure: (§1) In order to establish the dissociation constants from DNA and RNA, the non-covalent binding was ascertained. Non-covalent binding determines the presence of the psoralen within the nucleic acid helix. Its presence is determined in the absence of any radiant energy. As noted before, radiant energy is necessary to activate the psoralen covalent binding reaction with nucleic acid base pairs.
(§2) To determine the non-covalent binding, Calf thymus DNA (Sigma Type I) was dissolved in a 0.01 M Tris 0.001 M EDTA pH 8.5 buffer at a concentration of 25 ug/ml. A quantity of this DNA solution was placed in a dialysis bag (pretreated by boiling in NaHCO3), and the various tritiated derivatives were added inside the bag in half the cases and outside the bag in the other half. The molar ratio of psoralen molecules to base pairs was approximately 1:25. The bags were placed in vials filled with 18 ml of buffer and put on a shaker for 48-60 hours. After this period, radioactivity was determined both inside and outside the bags and the optical density of the DNA solution measured. From this information, and the specific activity of each derivative, the amount of drug non-covalently bound to the DNA was determined. Binding of the derivatives to Drosophila melanogaster ribosomal RNA was measured in exactly the same manner.
(§3) The units of the dissociation constants are moles/liter. Solubilities and molar extinction coefficients (ε) were obtained in pure water, the equilibrium constants (KD) in 0.01 M Tris.

[3] = Molar extinction coefficient in pure water; type: physicochemical
Source text: as §3

Solubility in pure water = type: physicochemical; details: pure water
Source text: In order to study solubilities and dissociation constants, it is most convenient to prepare tritiated derivatives of the psoralen compounds. Thus, well-known radiation counting methods may be utilized to monitor the presence of the psoralens in solutions, or in nucleic acids.
as §3

DNA = assay: Reactivity with DNA (general statement); type: binding, calf
Procedure: (§4) The covalent binding of the psoralens to DNA and RNA was studied. To achieve covalent binding, it is necessary to supply radiant energy (light) to the binding sites. These studies were carried out as follows:
(§5) The DNA and RNA used in the covalent binding studies have been described previously. Samples of each nucleic acid were prepared at a concentration of 25 ug/ml in 0.01 m Tris 0.001 M EDTA buffer. The radioactive-psoralen derivatives were added in a ratio of one psoralen for every three base pairs. The irradiation was carried out in one of the two following devices.
The low intensity irradiations were performed with a modified slide projector which was fitted with a 400 watt General Electric mercury vapor lamp (H 400 A 33-1/T16). The image of the arc was focused on the same cell, jacketed by a cobaltous nitrate solution which was also used for the high intensity irradiations. The light intensity delivered to the sample in this device was 4 to 6 mw/cm^2. The high intensity irradiations were carried out in a device containing two of the sam 400 watt General Electric mercury vapor lamps which were mounted on either side of a double walled sample chamber at a distance between centers of 4.0 cm. The chamber was cooled to 10° C. by continuous circulation of a temperature regulated solution of cobaltous nitrate (40% w/w). The cobalt solution served as an ultraviolet filter which allowed a maximum transmittance of 365 nm light and a window from approximately 340-380 nm. The intensity of the light at the surface of the inner sample chamber was approximately 100 mw/cm^2. The nucleic acid-psoralen mixture was placed in the inner chamber where it was continuously stirred throughout the irradiation. Aliquots of each solution (derivative plus nucleic acid) were taken at 20, 40 and 60 minutes. […] Finally, the optical density of the nucleic-acid psoralen mixture was taken and its radioactivity determined, thus giving the amount of derivative covalently bound to the DNA or RNA. […]

[4] = system: RNA (Drosophila melanogaster ribosomal RNA); assay: High intensity photoaddition (covalent binding) to RNA; details: 25 μg/ml RNA, psoralen:base pair 1:3
Procedure: as §4, §5
(§6) The low intensity irradiations were performed with a modified slide projector which was fitted with a 400 watt General Electric mercury vapor lamp (H 400 A 33-1/T16). The image of the arc was focused on the same cell, jacketed by a cobaltous nitrate solution which was also used for the high intensity irradiations. The light intensity delivered to the sample in this device was 4 to 6 mw/cm^2. The high intensity irradiations were carried out in a device containing two of the sam 400 watt General Electric mercury vapor lamps which were mounted on either side of a double walled sample chamber at a distance between centers of 4.0 cm. The chamber was cooled to 10° C. by continuous circulation of a temperature regulated solution of cobaltous nitrate (40% w/w). The cobalt solution served as an ultraviolet filter which allowed a maximum transmittance of 365 nm light and a window from approximately 340-380 nm. The intensity of the light at the surface of the inner sample chamber was approximately 100 mw/cm^2. The nucleic acid-psoralen mixture was placed in the inner chamber where it was continuously stirred throughout the irradiation. Aliquots of each solution (derivative plus nucleic acid) were taken at 20, 40 and 60 minutes. Each aliquot was then extracted twice with chloroform/iso-amyl alcohol (24:1) to remove unreacted psoralen followed by exhaustive dialysis against 0.01 M Tris, 0.001 M EDTA buffer. The successful extraction of unbound psoralen by the chloroform-isoamyl alcohol required the aqueous phase to be at least 0.15 M in NaCl. Finally, the optical density of the nucleic-acid psoralen mixture was taken and its radioactivity determined, thus giving the amount of derivative covalently bound to the DNA or RNA. Taking samples, at spaced time intervals also permitted an assessment of the kinetics of the covalent binding.

DNA (calf thymus) [5] = assay: High intensity photoaddition (covalent binding) to DNA; details: 25 μg/ml DNA, psoralen:base pair 1:3
Procedure: as §4, §5, §6

Calf thymus DNA = assay: Equilibrium dialysis, non-covalent binding to DNA; details: for Kd: 0.01 M Tris, non-covalent binding; for (PS)/(S) for DNA in Saturated Solution: occupied/unoccupied binding sites
Procedure: as §1, §2, §3

DNA (calf thymus) [6] = assay: Low intensity photoaddition (covalent binding) to DNA; details: for A (footnote 1, shown as drawing 9) / B = percent of added psoralen covalently bound: 25 μg/ml DNA, psoralen:base pair 1:3
Procedure: as §4, §5
as §6, with “Aliquots of each solution (derivative plus nucleic acid) were taken at 20, 40 and 60 minutes.” left out

For COCc1c(C)oc2c(C)c3oc(=O)cc(C)c3cc12 [4'-methoxymethyl-4,5',8-trimethyl psoralen], the “effectiveness in inactivation of vesicular stomatitis virus vs 4,5',8-trimethyl psoralen” value ([1]; high dose rates, e.g., 30 μg/ml) was “nearly one thousand times more effective”, the Kd [2] was 1000 µM and the “(PS)/(S) for RNA in Saturated Solution” value [2] was 0.037. For the same molecule, the “Extinction coefficient ε, 250 nm” value [3] was 21000 L/mol/cm, the solubility (Solubility in pure water) was 10 µg/mL and the solubility (Solubility in pure water; molar) was 37 µM. For the same molecule, the “reactivity with DNA” value (DNA) was “excellent reactivity with DNA”, the “A (footnote 1, shown as drawing 11)” value ([4]; 20 min irradiation) was 264.2 and the “B = percent of added psoralen covalently bound” value ([4]; 20 min irradiation) was 1.2%. For the same molecule, the “A (footnote 1, shown as drawing 11)” value ([4]; 40 min irradiation) was 216.8, the “B = percent of added psoralen covalently bound” value ([4]; 40 min irradiation) was 1.4% and the “A (footnote 1, shown as drawing 11)” value ([4]; 60 min irradiation) was 183.4. The “B = percent of added psoralen covalently bound” value ([4]; 60 min irradiation) was 1.6%, the “A (footnote 1, shown as drawing 10)” value (DNA (calf thymus) [5]; 20 min irradiation) was 14.1 and the “B = percent of added psoralen covalently bound” value (DNA (calf thymus) [5]; 20 min irradiation) was 21.3%. For the same molecule, the “A (footnote 1, shown as drawing 10)” value (DNA (calf thymus) [5]; 40 min irradiation) was 14.3, the “B = percent of added psoralen covalently bound” value (DNA (calf thymus) [5]; 40 min irradiation) was 21.0% and the “A (footnote 1, shown as drawing 10)” value (DNA (calf thymus) [5]; 60 min irradiation) was 13.8. For the same molecule, the “B = percent of added psoralen covalently bound” value (DNA (calf thymus) [5]; 60 min irradiation) was 21.7%, the Kd (Calf thymus DNA) was 94 µM and the “DNA site saturation, one psoralen per base pairs” value (Calf thymus DNA; saturated solution, expected from KD and solubility) was “one psoralen per three base pairs”. The “(PS)/(S) for DNA in Saturated Solution” value (Calf thymus DNA; saturated solution) was 0.39, the “(PS)/(S) for DNA in Saturated Solution” value (Calf thymus DNA; saturated solution, listed as 4'-methoxymethyl trioxsalen) was 0.5 and the “times more strongly binding to DNA than methoxsalen” value (Calf thymus DNA; vs methoxsalen) was 10 times.

With Cc1cc2cc3c(C)cc(=O)oc3c(C)c2o1 [trioxsalen, 4,5',8-trimethyl psoralen, reference compound] the “effect of increasing concentration on ability to inactivate the virus” value ([1]; FIG. 1, from 10 μg/ml to 30 μg/ml) was “no effect on its ability to inactivate the virus”, the Kd [2] was 100 µM and the “(PS)/(S) for RNA in Saturated Solution” value [2] was 0.026. The “Extinction coefficient ε, 250 nm” value [3] was 18000 L/mol/cm, the solubility (Solubility in pure water) was 0.6 µg/mL and the solubility (Solubility in pure water; molar) was 2.6 µM. The “A (footnote 1, shown as drawing 11)” value ([4]; 20 min irradiation) was 23.1, the “B = percent of added psoralen covalently bound” value ([4]; 20 min irradiation) was 13.0% and the “A (footnote 1, shown as drawing 11)” value ([4]; 40 min irradiation) was 21.6. For the same molecule, the “B = percent of added psoralen covalently bound” value ([4]; 40 min irradiation) was 13.9%, the “A (footnote 1, shown as drawing 11)” value ([4]; 60 min irradiation) was 20.6 and the “B = percent of added psoralen covalently bound” value ([4]; 60 min irradiation) was 14.8%. For the same molecule, the “rate of reaction with DNA / initial rate of photochemical binding” value (DNA (calf thymus) [6]) was “greater initial rate of photochemical binding than 4'-hydroxymethyl trioxsalen”, the “A (footnote 1, shown as drawing 9)” value (DNA (calf thymus) [6]; 5 min irradiation) was 19.7 and the “B = percent of added psoralen covalently bound” value (DNA (calf thymus) [6]; 5 min irradiation) was 15.5%. The “A (footnote 1, shown as drawing 9)” value (DNA (calf thymus) [6]; 10 min irradiation) was 15.5, the “B = percent of added psoralen covalently bound” value (DNA (calf thymus) [6]; 10 min irradiation) was 19.7% and the “A (footnote 1, shown as drawing 9)” value (DNA (calf thymus) [6]; 30 min irradiation) was 13.7. The “B = percent of added psoralen covalently bound” value (DNA (calf thymus) [6]; 30 min irradiation) was 22.1%, the “A (footnote 1, shown as drawing 9)” value (DNA (calf thymus) [6]; 60 min irradiation) was 12.8 and the “B = percent of added psoralen covalently bound” value (DNA (calf thymus) [6]; 60 min irradiation) was 23.6%. The “A (footnote 1, shown as drawing 9)” value (DNA (calf thymus) [6]; 90 min irradiation) was 10.6, the “B = percent of added psoralen covalently bound” value (DNA (calf thymus) [6]; 90 min irradiation) was 28.5% and the “moles of psoralen bound per mole of base pairs” value (DNA (calf thymus) [6]; 90 minutes irradiation) was 0.09 moles per mole of base pairs. For the same molecule, the “A (footnote 1, shown as drawing 10)” value (DNA (calf thymus) [5]; 20 min irradiation) was 11.6, the “B = percent of added psoralen covalently bound” value (DNA (calf thymus) [5]; 20 min irradiation) was 25.9% and the “A (footnote 1, shown as drawing 10)” value (DNA (calf thymus) [5]; 40 min irradiation) was 10.6. The “B = percent of added psoralen covalently bound” value (DNA (calf thymus) [5]; 40 min irradiation) was 28.3%, the “A (footnote 1, shown as drawing 10)” value (DNA (calf thymus) [5]; 60 min irradiation) was 12.2 and the “B = percent of added psoralen covalently bound” value (DNA (calf thymus) [5]; 60 min irradiation) was 24.6%. For the same molecule, the Kd (Calf thymus DNA) was 56 µM, the “one psoralen per n base pairs at equilibrium (best achievable)” value (Calf thymus DNA; saturated solution) was about 20 base pairs and the “(PS)/(S) for DNA in Saturated Solution” value (Calf thymus DNA; saturated solution) was 0.046. The “times stronger binding to DNA than 4'-hydroxymethyl trioxsalen” value (Calf thymus DNA; vs 4'-hydroxymethyl trioxsalen (trioxsalen binding)) was 5 times and the “times stronger binding to DNA than 4'-methoxymethyl trioxsalen” value (Calf thymus DNA; vs 4'-methoxymethyl trioxsalen) was 2 times.
